Holding throughout (format): in vivo
Test [1] deals with blood-glucose concentration. Nature of the test: Blood-glucose time course up to 24 hours in rabbits (Table 4). The conditions noted are these: for glucose concentration in blood, average: oral 5 mg/kg. As to the method: The hypoglycemic activity of N-{4-[2-(pyrazole-1-carbonamide)-ethyl]-benzenesulphonyl}-ureas prepared according to the present invention can be noticed after their oral administration to mice, rats, rabbits and people and when determining the glucose concentration in blood with a known enzymatic method using glucose oxidase. […]
The comparison of SPC-5002 and Glibornuride effect on changes in
concentration of rabbits in time up to 24 hours from the moment of the
in an oral dose containing 5 mg/kg body weight

Test [2] relates to insulin concentration. Nature of the test: Insulin in normal men after a meal (Table 8). The conditions noted are these: for Insulin concentration: normal men, meal, oral 10 mg. As to the method:
(§1) When administered to normal men volunteers it has been stated that 60 minutes after the administration of SPC-5002 a 5 mg oral dose causes the decrease in blood-glucose of 28% in comparision to the starting value and after 90 minutes it reaches 33% (Table 7). Whereas Glibornuride employed in a dose 2.5 times as big on peak of its activity decreases the glucose blood level only of 19%. It can clearly be noticed that there is a positive correlation between the glycemic and insulin level curves. Both examined preparations cause a significant decrease in free fatty acids in blood. […] 60 and 90 minutes after the SPC-5002 administration, the blood-glycose level is decreased to 33 and 52% while in the Placebo group it is maintained in the range of 13-14%.
The comparison of glucose concentration changes in voluntary-normal men
eaten a meal and the oral administration of 10 mg of SPC-5002 or Placebo

Test [3] concerns glucose concentration. Nature of the test: Blood glucose in normal men volunteers (Table 7). The conditions noted are these: for decrease in blood-glucose vs starting value: 5 mg oral; for Glucose concentration: oral 5 mg SPC-5002 or 12.5 mg Glibornuride. The procedure: The hypoglycemic activity of N-{4-[2-(pyrazole-1-carbonamide)-ethyl]-benzenesulphonyl}-ureas prepared according to the present invention can be noticed after their oral administration to mice, rats, rabbits and people and when determining the glucose concentration in blood with a known enzymatic method using glucose oxidase.
as §1
The comparison of glucose, insulin and free fatty acids concentration in
normal men after the oral administration of 5 mg of SPC-5002 or 12.5 mg

Structures are written as SMILES.

Consider `Cc1ccn(C(=O)NCCc2ccc(S(=O)(=O)NC(=O)NC3CCCCC3)cc2)n1` [SPC-5002, N-{4-[2-(3-methylpyrazole-1-carbonamide)-ethyl]-benzenesulphonyl}-N'-cyclohexylourea], for which, in test [1], the “effectiveness and duration relative to Glibornuride” value is “more effective and longer activity in comparison to Glibornuride”. The “glucose concentration in blood, average” value in test [1] (0 h) is recorded as 71 mg/100 cc; in test [1] (0.5 h), 57 mg/100 cc; in test [1] (1 h) it was 59 mg/100 cc; in test [1] (3 h), 63 mg/100 cc; in test [1] (6 h), 62 mg/100 cc; in test [1] (9 h) it was 62 mg/100 cc. The “glucose concentration in blood, average” value in test [1] (24 h) is listed as 70 mg/100 cc. For the same compound, in test [2] (normal men after meal, 60 minutes), the “insulin concentration relative to placebo group” value is on record as “twice as high as that in the placebo group”. For the same compound, the Insulin concentration was 7 μU/cc in test [2] (0 mins (empty stomach)); 50 μU/cc in test [2] (30 mins); 55 μU/cc in test [2] (60 mins); 17 μU/cc in test [2] (90 mins); 8 μU/cc in test [2] (120 mins); 8 μU/cc in test [2] (180 mins). The “decrease in blood-glucose vs starting value” is reported as 28% in test [3] (60 minutes) and 33% in test [3] (90 minutes). For the same compound, the Glucose concentration in test [3] (0 mins (empty stomach)) was 96.8 mg/100 cc; in test [3] (30 mins), 88.5 mg/100 cc; in test [3] (60 mins), 69.0 mg/100 cc; in test [3] (90 mins), 65.5 mg/100 cc; in test [3] (120 mins), 76.5 mg/100 cc; in test [3] (180 mins), 79.7 mg/100 cc.

The values are drawn from patent publication US4153710A, “N-(4-[2-(pyrazole-1-carbonamide)-ethyl]-benzenesulphonyl)-urea” (Starogardzkie Zaklady Farmaceutyczne POLFA, priority 1976, dated 1979).
